The results in this text go back to US6852696B2, “Inhibitors of glycosaminoglycans” (The University of Texas System, priority 1999, dated 2005).

In one experiment the test system is B16-F10 melanoma cells. Kind of experiment: In vitro growth of B16-F10 melanoma cells (3H-thymidine uptake). Format: cell-based, mouse. Conditions: 3H-thymidine uptake at 24 hr. The method, then:
FIGS. 4A-C. Impact of Pep-1 on lung metastasis of melanoma. (FIG. 4A) B16-F10 melanoma cells were suspended (4×10^5 cells/ml) in PBS containing Pep-1 monomer (2 or 3 mg/ml) (circles) or 2% DMSO alone (triangles). C57BL/6 mice received i.v. injection of these cell suspensions (500 μl/animal) and were examined for survival. Data shown are the cumulative survival curves from four independent experiments (n=37 for Pep-1 and n=20 for PBS control). […] (FIG. 4B) B16-F10 melanoma cells (1×10^5 cells/animal) were s.c. injected into the back of C57BL/6 mice. Pep-1 or RP (40 μg/injection) was injected locally into the tumor inoculation sites 0. 3. and 6 days after tumor injection. Data shown are the means+/−s.e.m. (n=10) of tumor sizes and tumor weights measured 10 days after tumor inoculation. (FIG. 4C) B16-F10 melanoma cells (2×10^5 cells/well) were cultured in the presence of the indicated concentrations of Pep-1 (closed circles) or PR (open circles). Data shown are the means+/−s.e.m.(n=3) of ^3H-thymidine uptake at 24 hr.

A further experiment relates to DO11.10 T cells. Put plainly: DO11.10 T cell proliferation triggered by splenic DC and OVA peptide (3H-thymidine uptake). In kind it is cell-based, mice. The method, then:
FIGS. 7A-C. Impact of tetrameric LIP on cytokine production during antigen presentation. (FIG. 7A) XS52 DC (0.2×10^6 cells/well) were cultured in the presence or absence of the KLH-reactive CD4^+ Thl clone HDK-1 (0.2×10^6 cells/well) and/or KLH (100 μg/ml). Culture supernatants collected at 24 hrs were examined for the indicated cytokines by ELISA. Data shown are the means+/−s.e.m. from triplicate samples. (FIG. 7B) XS52 DC and HDK-1 T cells were co-cultured with KLH in the presence of the indicated concentrations of Pep-1. Culture supernatants collected at 24 hrs were examined for the indicated cytokines by ELISA. (FIG. 7C) CD4^+ T cells isolated from DO11.10 transgenic mice (5×10^4 cells/well) were co-cultured with the indicated numbers of splenic DC isolated from BALB/c mice and the OVA peptide (2 μg/ml) in the presence of 500 μg/ml of Pep-1 (open circles), RP (triangles), or DMSO alone (closed circles). Co-cultures of CD4^+ T cells and DC in the absence of OVA peptide served as a control (square). All the cultures were examined for ^3H-thymidine uptake on Day 3. […]
FIGS. 9A-G. DC-associated HA and DC-dependent T cell proliferation. […] Statistically significant differences assessed by a two-tailed Student's t-test for comparing two groups or by analysis of variance (ANOVA) followed by LSD for multiple comparisons are indicated by asterisks (*P<0.05, **P<0.01). […]

Take GAHWQFNALTVR [Pep-1]: the “effect on in vitro growth of B16-F10 melanoma cells” value in the experiment on B16-F10 melanoma cells is recorded as “no apparent effects”. The “inhibition of DC-dependent, antigen-specific T cell proliferation” value in the experiment with DO11.10 T cells (300 μM (FIG. 9B)) was “inhibited”. Further, in the experiment on DO11.10 T cells (500 μg/ml (FIG. 7C)), the “inhibition of activation of naive CD4+ T cells by splenic DC” value was “inhibited the activation of immunologically naive CD4+ T cells”.
